Results as given in patent US20070122802A1, “Methods of diagnosing and treating diabetes and insulin resistance” (priority 2002, published 2007).

How the values were obtained:
Format in all cases: in vivo, human
PRK1 = test: Gene expression profiling (Affymetrix chips) of muscle from diabetics before/after troglitazone: PRK1 transcripts; conditions: PRK1 mRNA, Basal sample
Excerpt: (§1) The molecular mechanism by which thiazolidinediones (TZDs) cause an increase in peripheral insulin sensitivity was studied. Genes in muscle or fat whose expression is altered by TZDs may lie on a pathway leading from TZD treatment to increased insulin sensitivity. Modulators of such genes can elicit the same effect as TZD treatment. Moreover, such modulators can lack some of the side effects of TZD. The majority of glucose disposal occurs in muscle. For this reason, gene expression profiling in human muscle from diabetics treated with troglitazone was used to identify genes important for TZD action and therefore treatment of diabetes and insulin resistance. […]
(§2) In the second study, samples were obtained from lean, obese, and diabetic individuals before and after a hyperinsulinemic euglycemic clamp. […] The gene expression profile for each individual was determined by hybridization of cRNA to custom synthesized Affymetrix chips.
(§3) Gene expression profile differences were calculated as follows. […] The raw data was analyzed by a statistical test to remove ‘outliers’. The mean ‘average difference score’ was then calculated from the average difference scores for all individuals in a particular treatment group. Genes were determined to be changed in three different comparisons by calculating the Students t test statistic between two conditions and selecting those with t less than or equal to 0.05. […]

HIOMT = test: Gene expression profiling (Affymetrix chips) of muscle from diabetics before/after troglitazone: HIOMT transcripts; conditions: HIOMT mRNA, Basal sample
Excerpt: as §1, §2, §3

Ceramidase = test: Gene expression profiling (Affymetrix chips) of muscle from diabetics before/after troglitazone: ceramidase transcripts; conditions: Ceramidase mRNA, Clamp sample
Excerpt: as §1, §2, §3

Endothelin A receptor = test: Gene expression profiling (Affymetrix chips) of muscle from diabetics before/after troglitazone: Endothelin A receptor transcripts; conditions: Endothelin A receptor mRNA, Clamp sample
Excerpt: as §1, §2, §3

[1] = 3 months of Troglitazone treatment

With Cc1c(C)c2c(c(C)c1O)CCC(C)(COc1ccc(CC3SC(=O)NC3=O)cc1)O2 (centres unmarked) [Troglitazone, troglitazone] as the compound, how does the “Fold Change (diabetic post tro/diabetic pre tro)” value (PRK1; [1]) read?
The value was 0.54.

And the “Diabetic Post-Trog Mean Expr” value (PRK1; diabetic patients after 3 months of Troglitazone treatment (pre-Trog mean 1634))?
Its value is 874.

What about the “Fold Change (diabetic post tro/diabetic pre tro)” value (HIOMT; [1]) of the same compound?
The value was 1.51.

And the “Diabetic Post-Trog Mean Expr” value (HIOMT; diabetic patients after 3 months of Troglitazone treatment (pre-Trog mean 518))?
The value was 781.

What about the “Fold Change (diabetic post tro/diabetic pre tro)” value (Ceramidase; [1]) of the same compound?
Its value is 0.68.

And the “Diabetic Post-Trog Mean Exp” value (Ceramidase; diabetic patients after 3 months of Troglitazone treatment (pre-Trog mean 630))?
Its value is 427.

What about the “Fold Change (diabetic post tro/diabetic pre tro)” value (Endothelin A receptor; [1]) of the same compound?
Its value is 0.52.

And the “Diabetic Post-Trog Mean Expr” value (Endothelin A receptor; diabetic patients after 3 months of Troglitazone treatment (pre-Trog mean 194))?
Its value is 102.
